Results from ChEMBL document CHEMBL3885861, “Open TG-GATES”.

Species on record: Rattus norvegicus
Experiment: Open TG-GATES - Regimen: Single
Format: toxicity, organism-based, Sprague-Dawley
Design: regimen Single, gender Male, age 6 weeks
Settings: in vivo, po, 30 mg/kg, route gavage, dose level Low; for APTT / Bas / Eos / Fbg / Hb / Ht / Lym / MCH / MCHC / MCV / Mono / Neu / PT / Plat / RBC / Ret / WBC: tissue Blood; for KIDNEY_L / KIDNEY_R / KIDNEY_TOTAL: tissue Kidney; for LIVER: tissue Liver; for A/G / ALP / ALT / AST / BUN / CRE / Ca / Cl / DBIL / GLC / IP / K / LDH / Na / PL / RALB / TBIL / TC / TG / TP / gamma-GTP: tissue Plasma

Q: For `ClC(Cl)(Cl)Cl` [CARBON TETRACHLORIDE], which TERMINAL_BW (3 h) is on record?
A: 206.6 g

Q: And the APTT (3 h)?
A: 16.5 s

Q: And the Bas (3 h)?
A: 0%

Q: What about the Eos (3 h) of the same compound?
A: 0.8%

Q: What about the Fbg (3 h) of the same compound?
A: 259.6 mg/dL

Q: And the Hb (3 h)?
A: 13 g/dL

Q: And the Ht (3 h)?
A: 37.5%

Q: What about the Lym (3 h) of the same compound?
A: 76.6%

Q: What about the MCH (3 h) of the same compound?
A: 21.2 pg

Q: And the MCHC (3 h)?
A: 34.6%

Q: What about the MCV (3 h) of the same compound?
A: 61.4 fL

Q: And the Mono (3 h)?
A: 3.4%

Q: And the Neu (3 h)?
A: 19%

Q: And the PT (3 h)?
A: 12.3 s

Q: What about the Plat (3 h) of the same compound?
A: 127.9 x10_4/uL

Q: And the RBC (3 h)?
A: 610.8 x10_4/ul

Q: What about the Ret (3 h) of the same compound?
A: 8.6%

Q: And the WBC (3 h)?
A: 95.4 x10_2/uL

Q: And the KIDNEY_L (3 h)?
A: 0.9 g

Q: And the KIDNEY_R (3 h)?
A: 0.9 g

Q: What about the KIDNEY_TOTAL (3 h) of the same compound?
A: 1.9 g

Q: And the LIVER (3 h)?
A: 9.7 g

Q: What about the A/G (3 h) of the same compound?
A: 1.6

Q: What about the ALP (3 h) of the same compound?
A: 1090.2 IU/L

Q: What about the ALT (3 h) of the same compound?
A: 39.6 IU/L

Q: What about the AST (3 h) of the same compound?
A: 67.4 IU/L

Q: And the BUN (3 h)?
A: 11.8 mg/dL

Q: And the CRE (3 h)?
A: 0.4 mg/dL

Q: And the Ca (3 h)?
A: 10.9 mg/dL

Q: What about the Cl (3 h) of the same compound?
A: 104 meq/L

Q: And the DBIL (3 h)?
A: 0.1 mg/dL

Q: And the GLC (3 h)?
A: 192.6 mg/dL

Q: And the IP (3 h)?
A: 9.8 mg/dL

Q: What about the K (3 h) of the same compound?
A: 3.8 meq/L

Q: What about the LDH (3 h) of the same compound?
A: 198.8 IU/L

Q: And the Na (3 h)?
A: 140.2 meq/L

Q: What about the PL (3 h) of the same compound?
A: 169.2 mg/dL

Q: And the RALB (3 h)?
A: 3.4 g/dL

Q: What about the TBIL (3 h) of the same compound?
A: 0.2 mg/dL

Q: What about the TC (3 h) of the same compound?
A: 86 mg/dL

Q: What about the TG (3 h) of the same compound?
A: 81.2 mg/dL

Q: What about the TP (3 h) of the same compound?
A: 5.6 g/dL

Q: And the gamma-GTP (3 h)?
A: 1.4 IU/L

Q: And the TERMINAL_BW (6 h)?
A: 205.6 g

Q: And the APTT (6 h)?
A: 17.9 s

Q: And the Bas (6 h)?
A: 0%

Q: What about the Eos (6 h) of the same compound?
A: 1%

Q: What about the Fbg (6 h) of the same compound?
A: 242 mg/dL

Q: And the Hb (6 h)?
A: 13.1 g/dL

Q: And the Ht (6 h)?
A: 37.4%

Q: And the Lym (6 h)?
A: 72.8%

Q: What about the MCH (6 h) of the same compound?
A: 22 pg

Q: What about the MCHC (6 h) of the same compound?
A: 34.9%

Q: And the MCV (6 h)?
A: 63.1 fL

Q: And the Mono (6 h)?
A: 2.6%

Q: And the Neu (6 h)?
A: 22.8%

Q: And the PT (6 h)?
A: 12.7 s

Q: What about the Plat (6 h) of the same compound?
A: 134.6 x10_4/uL

Q: And the RBC (6 h)?
A: 593.6 x10_4/ul

Q: And the Ret (6 h)?
A: 8.6%

Q: What about the WBC (6 h) of the same compound?
A: 78.1 x10_2/uL

Q: And the KIDNEY_L (6 h)?
A: 0.9 g

Q: What about the KIDNEY_R (6 h) of the same compound?
A: 0.9 g

Q: And the KIDNEY_TOTAL (6 h)?
A: 1.8 g

Q: What about the LIVER (6 h) of the same compound?
A: 9.4 g

Q: What about the A/G (6 h) of the same compound?
A: 1.7

Q: And the ALP (6 h)?
A: 1051 IU/L

Q: And the ALT (6 h)?
A: 29.4 IU/L

Q: What about the AST (6 h) of the same compound?
A: 63.8 IU/L

Q: And the BUN (6 h)?
A: 10.2 mg/dL

Q: What about the CRE (6 h) of the same compound?
A: 0.4 mg/dL

Q: And the Ca (6 h)?
A: 10.6 mg/dL

Q: And the Cl (6 h)?
A: 104.4 meq/L

Q: And the DBIL (6 h)?
A: 0.1 mg/dL

Q: And the GLC (6 h)?
A: 195 mg/dL

Q: And the IP (6 h)?
A: 9.4 mg/dL

Q: What about the K (6 h) of the same compound?
A: 4.1 meq/L

Q: What about the LDH (6 h) of the same compound?
A: 221.2 IU/L

Q: What about the Na (6 h) of the same compound?
A: 139.6 meq/L

Q: What about the PL (6 h) of the same compound?
A: 159 mg/dL

Q: What about the RALB (6 h) of the same compound?
A: 3.5 g/dL

Q: What about the TBIL (6 h) of the same compound?
A: 0.2 mg/dL

Q: And the TC (6 h)?
A: 79 mg/dL

Q: What about the TG (6 h) of the same compound?
A: 91.2 mg/dL

Q: And the TP (6 h)?
A: 5.6 g/dL

Q: What about the gamma-GTP (6 h) of the same compound?
A: 1 IU/L

Q: And the TERMINAL_BW (9 h)?
A: 201.5 g

Q: And the APTT (9 h)?
A: 17.2 s

Q: And the Bas (9 h)?
A: 0%

Q: What about the Eos (9 h) of the same compound?
A: 0.8%

Q: What about the Fbg (9 h) of the same compound?
A: 229.4 mg/dL

Q: What about the Hb (9 h) of the same compound?
A: 12.7 g/dL

Q: And the Ht (9 h)?
A: 36.5%

Q: What about the Lym (9 h) of the same compound?
A: 74%

Q: And the MCH (9 h)?
A: 21.4 pg

Q: And the MCHC (9 h)?
A: 34.8%

Q: And the MCV (9 h)?
A: 61.6 fL

Q: And the Mono (9 h)?
A: 2.2%

Q: What about the Neu (9 h) of the same compound?
A: 22.6%

Q: And the PT (9 h)?
A: 12.5 s

Q: And the Plat (9 h)?
A: 126.6 x10_4/uL

Q: What about the RBC (9 h) of the same compound?
A: 593.2 x10_4/ul

Q: What about the Ret (9 h) of the same compound?
A: 9.1%

Q: What about the WBC (9 h) of the same compound?
A: 76.5 x10_2/uL

Q: And the KIDNEY_L (9 h)?
A: 0.9 g

Q: What about the KIDNEY_R (9 h) of the same compound?
A: 0.9 g

Q: What about the KIDNEY_TOTAL (9 h) of the same compound?
A: 1.8 g

Q: And the LIVER (9 h)?
A: 8.6 g

Q: What about the A/G (9 h) of the same compound?
A: 1.6

Q: What about the ALP (9 h) of the same compound?
A: 1042.2 IU/L

Q: What about the ALT (9 h) of the same compound?
A: 29.8 IU/L

Q: What about the AST (9 h) of the same compound?
A: 58 IU/L

Q: And the BUN (9 h)?
A: 10 mg/dL

Q: What about the CRE (9 h) of the same compound?
A: 0.4 mg/dL

Q: And the Ca (9 h)?
A: 10.4 mg/dL

Q: And the Cl (9 h)?
A: 103.8 meq/L

Q: What about the DBIL (9 h) of the same compound?
A: 0.09 mg/dL

Q: What about the GLC (9 h) of the same compound?
A: 196.8 mg/dL

Q: And the IP (9 h)?
A: 10.6 mg/dL

Q: And the K (9 h)?
A: 3.6 meq/L

Q: And the LDH (9 h)?
A: 174 IU/L

Q: And the Na (9 h)?
A: 140.2 meq/L

Q: What about the PL (9 h) of the same compound?
A: 150.8 mg/dL

Q: What about the RALB (9 h) of the same compound?
A: 3.3 g/dL

Q: And the TBIL (9 h)?
A: 0.2 mg/dL

Q: And the TC (9 h)?
A: 75.8 mg/dL

Q: What about the TG (9 h) of the same compound?
A: 57.2 mg/dL

Q: What about the TP (9 h) of the same compound?
A: 5.4 g/dL

Q: What about the gamma-GTP (9 h) of the same compound?
A: 0.8 IU/L

Q: And the TERMINAL_BW (24 h)?
A: 211.3 g

Q: What about the APTT (24 h) of the same compound?
A: 19.1 s

Q: What about the Bas (24 h) of the same compound?
A: 0%

Q: What about the Eos (24 h) of the same compound?
A: 0.8%

Q: And the Fbg (24 h)?
A: 229.6 mg/dL

Q: What about the Hb (24 h) of the same compound?
A: 13.6 g/dL

Q: And the Ht (24 h)?
A: 38.8%

Q: What about the Lym (24 h) of the same compound?
A: 84.4%

Q: What about the MCH (24 h) of the same compound?
A: 22.4 pg

Q: What about the MCHC (24 h) of the same compound?
A: 35%

Q: What about the MCV (24 h) of the same compound?
A: 64 fL

Q: What about the Mono (24 h) of the same compound?
A: 2.6%

Q: What about the Neu (24 h) of the same compound?
A: 11.6%

Q: What about the PT (24 h) of the same compound?
A: 12.1 s

Q: What about the Plat (24 h) of the same compound?
A: 132.2 x10_4/uL

Q: What about the RBC (24 h) of the same compound?
A: 606.4 x10_4/ul

Q: What about the Ret (24 h) of the same compound?
A: 8%

Q: What about the WBC (24 h) of the same compound?
A: 101.3 x10_2/uL

Q: What about the KIDNEY_L (24 h) of the same compound?
A: 1 g

Q: And the KIDNEY_R (24 h)?
A: 1 g

Q: And the KIDNEY_TOTAL (24 h)?
A: 2 g

Q: What about the LIVER (24 h) of the same compound?
A: 10.4 g

Q: And the A/G (24 h)?
A: 1.6

Q: What about the ALP (24 h) of the same compound?
A: 1115.2 IU/L

Q: And the ALT (24 h)?
A: 42.4 IU/L

Q: What about the AST (24 h) of the same compound?
A: 69.6 IU/L

Q: And the BUN (24 h)?
A: 14.8 mg/dL

Q: And the CRE (24 h)?
A: 0.4 mg/dL

Q: What about the Ca (24 h) of the same compound?
A: 10.7 mg/dL

Q: And the Cl (24 h)?
A: 103.8 meq/L

Q: And the DBIL (24 h)?
A: 0.07 mg/dL

Q: What about the GLC (24 h) of the same compound?
A: 202 mg/dL

Q: What about the IP (24 h) of the same compound?
A: 7.7 mg/dL

Q: And the K (24 h)?
A: 3.8 meq/L

Q: And the LDH (24 h)?
A: 188.8 IU/L

Q: And the Na (24 h)?
A: 140.6 meq/L

Q: And the PL (24 h)?
A: 155.2 mg/dL

Q: What about the RALB (24 h) of the same compound?
A: 3.5 g/dL

Q: What about the TBIL (24 h) of the same compound?
A: 0.1 mg/dL

Q: What about the TC (24 h) of the same compound?
A: 81.2 mg/dL

Q: What about the TG (24 h) of the same compound?
A: 61.8 mg/dL

Q: And the TP (24 h)?
A: 5.7 g/dL

Q: What about the gamma-GTP (24 h) of the same compound?
A: 1.4 IU/L
